In patent US20050197364A1, “Amide compounds as ion channel ligands and uses thereof” (priority 2003, published 2005):
pIC50: −log10 of the molar value.

Tests used:
VR1 receptor = assay: High throughput calcium imaging assay (Fura2, Flex Station) of VR1 antagonists, pH 5.1 stimulus; assay type: cell-based; conditions: 1 uM compound; inhibition of calcium ion influx induced by capsaicin stimulation
Description: Therefore the functional activity of compounds at the VR1 receptor may be determined by measuring changes in intracellular calcium levels in 293 cells expressing capsaicin-insensitive VR1 receptor variants. A dual wavelength ratiometric dye, Fura2, was used as an indicator of relative levels of calcium ions in a 96 well format using a bench top scanning fluorometer with integrated fluidics and temperature control (Flex Station, Molecular Devices).
293 cells were grown on PDL coated 96-well black-walled plates, in the presence of a DMEM medium containing 5% Penstrep, 5% Glutamax, 200 ug/mL Hygromycin, 5 μg/mL Blasticide and 10% heat inactivated FBS. Prior to assay, the cells were loaded with 5 μg/mL Fura2 in normal saline solution at 37° C. for 40 minutes. Cells were then washed with normal saline to remove the dye.
The assay consists of two stages; a pre-treatment phase followed by a treatment phase.
50 μl of a compound solution was added to the cells (Pre-treatment). Immediately following, 50 μl of the test compound in a saline solution at pH 5.1 was added. Fura2 was excited at 340 and 380 nM to indicate relative calcium concentration. Changes in wavelength measurements were made throughout the course of the experiment in 4 second intervals over a period of 3 minutes. Responses were measured as peak fluorescence ratio after test compound addition minus baseline fluorescence ratio prior to pre-treatment and were calculated using SoftMaxPro softwareData were expressed as percentage inhibition calculated using Excel as follows: [formula]

[1] = tested on: pawlick response induced by capsaicin; assay: Paw lick assay (capsaicin challenge); assay type: in vivo; conditions: 30 mg/kg, at least 30 minutes prior to testing; FIG. 5
Description: This assay was performed to test the ability of Compound 18 to inhibit the response to capsaicin challenge.
Animals were acclimatized at least 2 days prior to testing by placing them in a behavioral chamber for one hour. On the day of testing, animals were trained for 30-60 minutes prior to dosing. Animals were dosed with 30 mg/kg of Compound 18 at least 30 minutes prior to testing and then placed in behavioral chambers for acclimatization. Animals were then placed into a falcon tube restrainer and injected with a 0.16 mg/ml capsaicin solution (or vehicle) into the plantar surface of their paw. Animals were then returned to the behavior chamber and monitored for paw licking behavior (including paw and leg licking behavior) over the next 5 minute interval.

[2] = Aqueous equilibrium solubility; assay type: physicochemical; conditions: room temperature
Description: Equilibrium solubility was measured in a pH 2.0 isotonic solution of NaCl/HCl and a pH 7.4 aqueous buffer. The pH 2.0 solution was prepared by adjusting the saline solution to a pH of 2.0 using HCl. The pH 7.4 buffer was prepared by adjusting the pH of a 0.07 M solution of NaH2PO4 to pH 7.4 with 10 N NaOH. […] At least 1 mg of powder was combined with 1 ml of buffer to make ≧1 mg/ml mixture. This sample was shaken for ≧2 hours and left to stand overnight at room temperature. The samples were then filtered through a 0.45-μm Nylon syringe filter that was first saturated with the sample. The filtrate was sampled twice, consecutively. All samples were assayed by LC/MS using electrospray ionization. The typical range of the assay is greater than 1 mg/mL to less than 0.0002 mg/mL, depending on analytical sensitivity.

[3] = Partition coefficient Log(D), 1-octanol / pH 7.4 buffer; assay type: physicochemical; conditions: pH 7.4, 1-octanol/buffer
Description: The partition coefficient, Log(D), between water-saturated 1octanol and pH 7.4 buffer was determined for Compound 18. The pH 7.4 buffer was prepared by adjusting the pH of a 0.07 M solution of NaH2PO4 to pH 7.4 with 10 N NaOH. 15 μL of a 10 mM stock solution of test article were pipetted in duplicate, into test tubes containing 750 μL each of 1-octanol and pH 7.4 buffer. Then 3 μL of 50 mM testosterone was also added to each tube. Then the tubes were rotated for about one hour using a benchtop rotator. Following the rotation, the tubes sat on the bench top for about 1 hour to allow the layers to separate.
Thereafter, 400 μL of the octanol (top) layer was removed and placed into a test tube. Next 400 μL of the aqueous (bottom) layer was removed and placed into a test tube. […]
A standard curve of test article and testosterone was prepared using 50% methanol at the following concentrations: 2, 0.6, 0.2, 0.06, 0.02, 0.006, and 0.002 μM. The samples were analyzed by LC/MS monitoring both test article and testosterone. Log (D) was calculated for each duplicate sample by taking the calculated concentration of the least diluted sample for each phase that fell within the standard curve using the following equation: Log(D)=Log10(Calc. Conc. in Organic Phase/Calc. Conc. in Aqueous Phase).

[4] = Plasma protein binding by equilibrium dialysis, human plasma; assay type: in vitro ADME; conditions: human plasma in sodium citrate, pH 7.4, 37° C., read-out: human plasma protein binding (% Bound)
Description: Membranes from Harvard/Amika with a molecular weight cutoff of 5,000 were rinsed with dH2O then placed in pH 7.4 PBS supplied by Gibco. The membranes were allowed to soak for 1 hour. A stock of the test article was pooled with Warfarin, Atropine at 2 mM in DMSO. The test article was then dosed into human plasma in sodium citrate, Rat Plasma, and Mouse Plasma to a final 10 μM concentration (0.5% DMSO v/v). The pre-soaked membranes were then placed into dialysis chambers. 500 μL of PBS was added to one side of the chamber, and 500 μL of the Matrix containing the test article was added to the other side of the chamber.
The chambers were then placed into an enclosed, heated rocker, which was pre-warmed to 37° C. and allowed to reach equilibrium for at least 22 hours. After 22 hours both sides were sampled. 100 μL of the donor side was added to 500 μL of PBS. 100 μL of the PBS side was added to 20 μL of fresh matrix. Samples then were crashed with 1:1 Acetonitrile and centrifuged at 10,000 RPM for 10 minutes. […]
Standards were prepared in a 1:5 plasma:PBS mixture at 5, 1.5, 0.5, 0.15, 0.05, 0.015 and 0.005 μM concentrations. […] Protein binding values were calculated as follows: % Bound=[(Concentration in Donor−Concentration in Receiver)/(Concentration in Donor)]×100. % Recovery=[(Concentration in donor+Concentration in Receiver)]/(Concentration in Normal Initial)]×100

CYP2D6 = CYP2D6 (Homo sapiens, UniProt P10635); assay: Cytochrome p450 inhibition assessment, CYP2D6; assay type: in vitro ADME; conditions: concentration range tested, upper 100 μM
CYP2D6, sequence (P10635 whole entry): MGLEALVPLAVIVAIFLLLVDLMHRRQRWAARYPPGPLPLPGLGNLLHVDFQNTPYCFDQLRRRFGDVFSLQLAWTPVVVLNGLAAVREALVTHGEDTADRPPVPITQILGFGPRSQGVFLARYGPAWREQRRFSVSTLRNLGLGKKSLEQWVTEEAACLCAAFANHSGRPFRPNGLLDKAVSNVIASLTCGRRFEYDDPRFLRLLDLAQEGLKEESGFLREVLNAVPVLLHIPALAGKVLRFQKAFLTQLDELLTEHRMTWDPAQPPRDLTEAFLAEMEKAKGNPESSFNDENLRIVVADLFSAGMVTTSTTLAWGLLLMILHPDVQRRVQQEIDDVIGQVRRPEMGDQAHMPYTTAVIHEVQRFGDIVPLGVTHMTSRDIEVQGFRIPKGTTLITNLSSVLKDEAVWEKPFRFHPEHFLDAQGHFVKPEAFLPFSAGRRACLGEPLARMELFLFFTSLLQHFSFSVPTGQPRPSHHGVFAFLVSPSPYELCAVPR
Description: (§1) The ability of test compounds to inhibit five major human cytochrome p450 isozymes was evaluated. Cytochrome p450 inhibition assays were performed on 96-well microtiter assay plates according to the protocols described in Gentest P450 inhibition instruction manuals. The assays were performed in duplicate at 8 concentrations with the upper concentration of 100 μM followed by a 1:3 serial dilution. Reactions were initiated by the addition of 100 μL of enzyme/substrate mix to 100 μL of cofactor/serial dilution mix, and terminated by addition of 75 μL of a 4:1 acentonitrile: 0.5 M Tris base solution or by 2N NaOH for CYP3A4/DBF. Fluorescence was measured using a fluorescence plate reader (FLUOstar model 403, BMG Lab Technologies, Durham, N.C.). For reactions with inhibition greater than 50%, IC50 values were determined by fitting the data to the Hill equation using software GraphPad Prism (Version 4.02, GraphPad Software, San Diego, Calif.).

CYP3A4 = CYP3A4 (Homo sapiens, UniProt P08684); assay: Cytochrome p450 inhibition assessment, CYP3A4; assay type: in vitro ADME; conditions: concentration range tested, upper 100 μM
CYP3A4, sequence (P08684 whole entry): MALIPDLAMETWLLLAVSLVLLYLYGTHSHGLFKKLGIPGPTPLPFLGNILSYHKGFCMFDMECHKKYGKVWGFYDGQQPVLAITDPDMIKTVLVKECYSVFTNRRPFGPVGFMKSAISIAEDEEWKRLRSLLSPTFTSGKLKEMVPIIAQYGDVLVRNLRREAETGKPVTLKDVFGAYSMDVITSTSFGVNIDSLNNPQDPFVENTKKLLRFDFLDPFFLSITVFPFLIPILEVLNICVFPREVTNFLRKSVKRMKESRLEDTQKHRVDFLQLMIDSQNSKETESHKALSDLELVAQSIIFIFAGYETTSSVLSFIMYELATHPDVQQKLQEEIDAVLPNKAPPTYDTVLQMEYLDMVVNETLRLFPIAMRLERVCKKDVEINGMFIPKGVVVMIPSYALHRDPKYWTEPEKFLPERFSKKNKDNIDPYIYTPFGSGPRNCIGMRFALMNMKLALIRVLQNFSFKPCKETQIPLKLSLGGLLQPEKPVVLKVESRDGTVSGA
Description: as §1

CYP2C19 = CYP2C19 (Homo sapiens, UniProt P33261); assay: Cytochrome p450 inhibition assessment, CYP2C19; assay type: in vitro ADME; conditions: estimated
CYP2C19, sequence (P33261 whole entry): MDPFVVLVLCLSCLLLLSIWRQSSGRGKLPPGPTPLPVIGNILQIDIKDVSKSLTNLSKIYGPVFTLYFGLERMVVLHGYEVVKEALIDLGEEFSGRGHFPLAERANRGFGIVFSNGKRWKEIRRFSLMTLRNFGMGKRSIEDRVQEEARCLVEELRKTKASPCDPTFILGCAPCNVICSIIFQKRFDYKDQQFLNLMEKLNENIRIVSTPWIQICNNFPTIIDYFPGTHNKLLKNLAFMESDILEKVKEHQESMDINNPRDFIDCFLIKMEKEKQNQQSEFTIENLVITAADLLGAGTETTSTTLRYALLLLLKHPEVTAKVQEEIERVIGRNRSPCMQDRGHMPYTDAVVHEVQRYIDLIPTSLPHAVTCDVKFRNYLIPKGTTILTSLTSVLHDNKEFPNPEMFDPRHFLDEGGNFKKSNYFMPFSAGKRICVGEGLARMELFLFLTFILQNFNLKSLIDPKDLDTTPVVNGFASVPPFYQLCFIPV
Description: as §1

O=C(Nc1ccc(C(F)(F)F)cc1)c1ccc(-c2ncccc2Cl)cc1 [Compound 18, 4-(3-Chloropyridin-2-yl)-N-(4-trifluoromethyl-phenyl)benzamide]
% Inhibition @ 1 uM (VR1 receptor): + + + + (compound exhibited 75% or greater inhibition of calcium ion influx induced by capsaicin stimulation)
pawlick response induced by treatment with capsaicin [1]: significantly inhibited
solubility thermodynamic ([2]; pH 2.0 isotonic NaCl/HCl solution, simulated gastric fluid, thermodynamic from solid, pH 2.0 isotonic NaCl/HCl): < 0.2 µg/mL
equilibrium solubility ([2]; pH 7.4 aqueous buffer): low solubility
Log (D) [3]: less than 4.7
fraction unbound at 22 h, 10 µM [4]: < 0.002
inhibition of CYP2D6 activity (CYP2D6): did not significantly inhibit
inhibition of CYP3A4 activity (CYP3A4): did not significantly inhibit
pIC50 (CYP2C19): 4.57
